In patent US12291518B2, “Thyroid hormone receptor agonists and use thereof” (Eccogene Inc., priority 2020, dated 2025):

Tests used:
THR alpha-LBD = molecular target: T1, THR alpha-LBD (Homo sapiens, UniProt P10827); test: THR-α Coactivator Peptide Recruitment Assay (LanthaScreen TR-FRET); format: biochemical; settings: TR-FRET coactivator recruitment, THR alpha-LBD 0.25 nM; for EC50: read-out: THRα EC50
T1 construct: except that THR alpha-LBD of a final concentration 0.25 nM was used; purchased Invitrogen PV4687
T1 sequence (P10827 163-410 isoform P10827-2 limits assumed, other chains not shown): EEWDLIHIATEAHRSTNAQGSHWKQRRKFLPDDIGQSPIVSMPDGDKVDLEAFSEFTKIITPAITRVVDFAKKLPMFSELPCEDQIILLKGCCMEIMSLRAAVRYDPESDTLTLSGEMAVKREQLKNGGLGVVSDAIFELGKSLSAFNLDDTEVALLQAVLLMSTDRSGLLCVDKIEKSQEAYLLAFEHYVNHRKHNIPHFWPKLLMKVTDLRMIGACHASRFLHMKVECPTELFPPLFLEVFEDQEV
Description: (§1) A time-resolved FRET (TR-FRET) assay was used to test representative compounds of the application.
(§2) THR-β Coactivator Peptide Recruitment Assay were conducted by using Invitrogen's LanthaScreen™ TR-FRET Thyroid Receptor beta Assay Kit (Catalog no. PV4686). Binding of an agonist to the nuclear receptor causes a subsequent binding of a coactivator peptide, resulting in fluorescence energy transfer from the labelled nuclear receptor to the proximal coactivator peptide, which reflects the binding affinity of the agonist and the nuclear receptor. The assay was conducted by following the manufacturer's instructions. Briefly, THR beta-LBD (the final concentration is 0.5 nM) was added to the 384-well assay plate containing test compounds, followed by addition of Fluorescein-SRC2-2 coactivator peptide and terbium (Tb)-labeled anti-GST antibody. The final concentration of THR beta-LBD, Fluorescein-SRC2-2 coactivator peptide and terbium (Tb)-labeled anti-GST antibody is 0.5 nM, 0.1 nM and 2 nM, respectively. After a gentle mix and incubation at room temperature for 2 h, the signal was read on the EnVision Multilabel Plate Reader at wavelengths of 520 nm and 495 nm. TR-FRET ratio was calculated by dividing the emission signal at 520 nm and the emission signal at 495 nm, and then was plotted against a sigmoidal dose response curve (four parameters, GraphPad™ Prism 8) to determine the EC50 value.
THR-α Coactivator Peptide Recruitment Assay were conducted by using Invitrogen's LanthaScreen™ TR-FRET Thyroid Receptor alpha Assay Kit (Catalog no. PV4687), following the same method described above except that THR alpha-LBD of a final concentration 0.25 nM was used.

THR beta-LBD = molecular target: T2, THR beta-LBD (Homo sapiens, UniProt P10828); test: THR-β Coactivator Peptide Recruitment Assay (LanthaScreen TR-FRET); format: biochemical; settings: TR-FRET coactivator recruitment, THR beta-LBD 0.5 nM; for EC50: read-out: THRβ EC50
T2 construct: THR beta-LBD (the final concentration is 0.5 nM) was added to the 384-well assay plate; purchased Invitrogen PV4686
T2 sequence (P10828 217-461 limits assumed): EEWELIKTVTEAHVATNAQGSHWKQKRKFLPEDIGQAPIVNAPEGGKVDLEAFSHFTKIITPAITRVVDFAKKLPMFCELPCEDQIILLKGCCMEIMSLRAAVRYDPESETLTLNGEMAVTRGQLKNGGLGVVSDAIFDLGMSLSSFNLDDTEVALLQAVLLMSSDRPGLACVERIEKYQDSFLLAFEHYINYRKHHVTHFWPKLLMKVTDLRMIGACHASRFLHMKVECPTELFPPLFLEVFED
Description: as §1, §2

| THRα Emax (THR alpha-LBD) | EC50 (THR alpha-LBD) | THRβ Emax (THR beta-LBD) | EC50 (THR beta-LBD) | Compound |
| --- | --- | --- | --- | --- |
| B (40~85) | 2 to 200 nM | C (<75) | 2 to 20 nM | CS(=O)(=O)N[C@@H]1CCN(S(=O)(=O)c2cc(Oc3c(Cl)cc(-n4nc(C(F)F)c(=O)[nH]c4=O)cc3Cl)ccc2O)C1 [Compound 47, (R)-N-(1-((5-(2,6-dichloro-4-(6-(difluoromethyl)-3,5-dioxo-4,5-dihydro-1,2,4-triazin-2(3H)-yl)phenoxy)-2-hydroxyphenyl)sulfonyl)pyrrolidin-3-yl)methanesulfonamide] |
| B (40~85) | 200 to 1000 nM | C (<75) | 2 to 20 nM | O=c1[nH]c(=O)n(-c2cc(Cl)c(Oc3ccc(O)c(S(=O)(=O)N[C@@H]4CCN(S(=O)(=O)C5CC5)C4)c3)c(Cl)c2)nc1C(F)F [Compound 48, (R)-N-(1-(cyclopropylsulfonyl)pyrrolidin-3-yl)-5-(2,6-dichloro-4-(6-(difluoromethyl)-3,5-dioxo-4,5-dihydro-1,2,4-triazin-2(3H)-yl)phenoxy)-2-hydroxybenzenesulfonamide] |
| C (<40) | 200 to 1000 nM | C (<75) | 2 to 20 nM | O=c1[nH]c(=O)n(-c2cc(Cl)c(Oc3ccc(O)c(S(=O)(=O)N[C@H]4CCN(S(=O)(=O)C5CC5)C4)c3)c(Cl)c2)nc1C(F)F [Compound 49, (S)-N-(1-(cyclopropylsulfonyl)pyrrolidin-3-yl)-5-(2,6-dichloro-4-(6-(difluoromethyl)-3,5-dioxo-4,5-dihydro-1,2,4-triazin-2(3H)-yl)phenoxy)-2-hydroxybenzenesulfonamide] |
| B (40~85) | 200 to 1000 nM | C (<75) | 2 to 20 nM | CS(=O)(=O)N1CC[C@H](NS(=O)(=O)c2cc(Oc3c(Cl)cc(-n4nc(C(F)F)c(=O)[nH]c4=O)cc3Cl)ccc2O)C1 [Compound 50, (S)-5-(2,6-dichloro-4-(6-(difluoromethyl)-3,5-dioxo-4,5-dihydro-1,2,4-triazin-2(3H)-yl)phenoxy)-2-hydroxy-N-(1-(methylsulfonyl)pyrrolidin-3-yl)benzenesulfonamide] |
| B (40~85) | 200 to 1000 nM | C (<75) | 2 to 20 nM | CS(=O)(=O)N1CC[C@@H](NS(=O)(=O)c2cc(Oc3c(Cl)cc(-n4nc(C(F)F)c(=O)[nH]c4=O)cc3Cl)ccc2O)C1 [Compound 51, (R)-5-(2,6-dichloro-4-(6-(difluoromethyl)-3,5-dioxo-4,5-dihydro-1,2,4-triazin-2(3H)-yl)phenoxy)-2-hydroxy-N-(1-(methylsulfonyl)pyrrolidin-3-yl)benzenesulfonamide] |

More lines, now with the values behind:

| Compound | THRα Emax (THR alpha-LBD) | EC50 (THR alpha-LBD) | THRβ Emax (THR beta-LBD) | EC50 (THR beta-LBD) |
| --- | --- | --- | --- | --- |
| CO[C@H]1C[C@@H](NS(=O)(=O)c2cc(Oc3c(Cl)cc(-n4nc(C(F)F)c(=O)[nH]c4=O)cc3Cl)ccc2O)C1 [Compound 37, 5-(2,6-dichloro-4-(6-(difluoromethyl)-3,5-dioxo-4,5-dihydro-1,2,4-triazin-2(3H)-yl)phenoxy)-2-hydroxy-N-((1s,3s)-3-methoxycyclobutyl)benzenesulfonamide] | A (85~110) | 2 to 200 nM | B (75~90) | 2 to 20 nM |
| O=C(N1CCC1)C1(NS(=O)(=O)c2cc(Oc3c(Cl)cc(-n4nc(C(F)F)c(=O)[nH]c4=O)cc3Cl)ccc2O)CC1 [Compound 38, N-(1-(azetidine-1-carbonyl)cyclopropyl)-5-(2,6-dichloro-4-(6-(difluoromethyl)-3,5-dioxo-4,5-dihydro-1,2,4-triazin-2(3H)-yl)phenoxy)-2-hydroxybenzenesulfonamide] | A (85~110) | 2 to 200 nM | B (75~90) | 2 to 20 nM |
| CS(=O)(=O)[C@H]1CCN(S(=O)(=O)c2cc(Oc3c(Cl)cc(-n4nc(C(F)F)c(=O)[nH]c4=O)cc3Cl)ccc2O)C1 [Compound 39, (S)-2-(3,5-dichloro-4-(4-hydroxy-3-((3-(methylsulfonyl)pyrrolidin-1-yl)sulfonyl)phenoxy)phenyl)-6-(difluoromethyl)-1,2,4-triazine-3,5(2H,4H)-dione] | B (40~85) | 2 to 200 nM | C (<75) | < 2 nM |
| O=c1[nH]c(=O)n(-c2cc(Cl)c(Oc3ccc(O)c(S(=O)(=O)N4CC(O)C4)c3)c(Cl)c2)nc1C(F)F [Compound 40, 2-[3,5-dichloro-4-[4-hydroxy-3-(3-hydroxyazetidin-1-yl)sulfonyl-phenoxy]phenyl]-6-(difluoromethyl)-1,2,4-triazine-3,5-dione] | A (85~110) | 2 to 200 nM | B (75~90) | < 2 nM |
| C[C@@H](CO)NS(=O)(=O)c1cc(Oc2c(Cl)cc(-n3nc(C(F)F)c(=O)[nH]c3=O)cc2Cl)ccc1O [Compound 41, (S)-5-(2,6-dichloro-4-(6-(difluoromethyl)-3,5-dioxo-4,5-dihydro-1,2,4-triazin-2(3H)-yl)phenoxy)-2-hydroxy-N-(1-hydroxypropan-2-yl)benzenesulfonamide] | A (85~110) | 2 to 200 nM | B (75~90) | < 2 nM |
| O=c1[nH]c(=O)n(-c2cc(Cl)c(Oc3ccc(O)c(S(=O)(=O)NC[C@H]4C[C@H](O)C4)c3)c(Cl)c2)nc1C(F)F [Compound 43, 5-(2,6-dichloro-4-(6-(difluoromethyl)-3,5-dioxo-4,5-dihydro-1,2,4-triazin-2(3H)-yl)phenoxy)-2-hydroxy-N-(((1r,3r)-3-hydroxycyclobutyl)methyl)benzenesulfonamide] | A (85~110) | 2 to 200 nM | A (90~110) | 2 to 20 nM |
| O=c1[nH]c(=O)n(-c2cc(Cl)c(Oc3ccc(O)c(S(=O)(=O)NC[C@H]4C[C@@H](O)C4)c3)c(Cl)c2)nc1C(F)F [Compound 44, 5-(2,6-dichloro-4-(6-(difluoromethyl)-3,5-dioxo-4,5-dihydro-1,2,4-triazin-2(3H)-yl)phenoxy)-2-hydroxy-N-(((1s,3s)-3-hydroxycyclobutyl)methyl)benzenesulfonamide] | A (85~110) | 2 to 200 nM | B (75~90) | 2 to 20 nM |
| C[C@H](CO)NS(=O)(=O)c1cc(Oc2c(Cl)cc(-n3nc(C(F)F)c(=O)[nH]c3=O)cc2Cl)ccc1O [Compound 45, (R)-5-(2,6-dichloro-4-(6-(difluoromethyl)-3,5-dioxo-4,5-dihydro-1,2,4-triazin-2(3H)-yl)phenoxy)-2-hydroxy-N-(1-hydroxypropan-2-yl)benzenesulfonamide] | A (85~110) | 2 to 200 nM | B (75~90) | < 2 nM |
| CS(=O)(=O)N[C@H]1CCN(S(=O)(=O)c2cc(Oc3c(Cl)cc(-n4nc(C(F)F)c(=O)[nH]c4=O)cc3Cl)ccc2O)C1 [Compound 46, N-[(3S)-1-[5-[2,6-dichloro-4-[6-(difluoromethyl)-3,5-dioxo-1,2,4-triazin-2-yl]phenoxy]-2-hydroxy-phenyl]sulfonylpyrrolidin-3-yl]methanesulfonamide] | B (40~85) | 2 to 200 nM | B (75~90) | < 2 nM |
